Reference: patent US20030106085A1, “Disruption of the prostaglandin E synthase 2 gene” (Pfizer Inc., priority 2001, published 2003)

Tests used:
[1] = tested on: PGES2 KO clone #22F ES cell-derived macrophages; assay: Rescue of wild type phenotype (cell density) in PGES2 KO ES cell-derived macrophages by PGE2 added to the media; type: cell-based, murine
Method: DBA-252 WT (+/+) and PGES KO (−/−) ES cell clones #22D, #22F and #70V were used to develop ES cell in vitro differentiated (IVD) macrophages. WT and KO PGES2 ES cell clones were maintained without PEF feeders in SCML. Two days prior to embryoid body (EB) formation, all ES cell lines were switched to l-SCML medium that contained a base medium of Iscove's MDM (ILTI, #31980-030) supplemented with 15% ES cell qualified fetal calf serum, 0.2 mM L-glutamine, 0.1 mM MEM non-essential amino acids, 1000 u/ml recombinant murine leukemia inhibitory factor, 50 μg/ml Gentamycin and 0.1 mM 2-Mercaptoethanol (Sigma #M-7522).
Embryoid body stage: The WT and KO ES cell clones were dissociated and grown in suspension culture in bacteriology 100 mm dishes in MacEB medium that contained the base medium Iscove's MDM supplemented with 15% ES cell qualified fetal calf serum, 2 mM L-glutamine, 300 μg transferrin (ILTI, #13008-016), 50 μg/ml L-ascorbic acid (Sigma Chemical, #A-4403), 5% PFHM-II (ILTI, #12040-093), 4×10^−4 M monothioglycerol (MTG), and 50 μg/ml Gentamycin. ES cells were grown in suspension for 6 days to form the EB cell aggregates.
Precursor macrophage stage: The EBs were dissociated on day 6 and plated in tissue culture dishes in Mac I medium that contained the base medium Iscove's MDM supplemented with 10% FBS (ILTI, #10439-024), 5% PFHM-II (ILTI, #12040-093), 2 mM L-glutamine, 3 ng/ml M-CSF (Sigma #M-9170), 1 ng/ml IL-3 (PeproTech, Inc., Rocky Hill, N.J., #213-13) and 50 μg/ml Gentamycin. When this cell population became confluent, the macrophage precursors developed as non-adherent clusters and could be harvested every other day from day 14 through day 30.
ES cell-derived macrophages: Non-adherent clusters of macrophage precursors were harvested from the media by centrifugation. Cell pellets were resuspended in Mac II media that contained the base medium Iscove's MDM supplemented with 10% FBS, 5% PFHM-II, 2 mM L-glutamine, 3 ng/ml M-CSF, and 50 μg/ml Gentamycin. […]

[2] = tested on: PGES2 KO and wild type mice; assay: Acetic acid-induced writhing (acute inflammation/pain model); type: in vivo; settings: 10 mg/kg orally, one hour before 0.7% acetic acid i.p., vs vehicle
Method: PGES2 KO mice were profiled in two experimental models of inflammation, collagen-induced arthritis (chronic inflammation model) and acetic acid-induced writhing (acute inflammation/pain model). All experiments were performed with age/sex-matched animals propagated on a DBA1/lacJ genetic background. This genetic background is optimal for collagen-induced arthritis (CIA). The phenotype in CIA was further profiled by characterizing the immune responses of PGES2 KO and wild type animals by assessing antibody production and delayed-type hypersensitivity reactions. In summary, results of the CIA and acetic acid-induced writhing models indicate a role for PGES2 in PGE2-mediated chronic inflammation, acute inflammation, and acute inflammatory pain detection as opposed to neuropathic pain detection. Mice were randomized and dosed orally with either vehicle (0.5% (w/w) methylcellulose, Sigma Chemical, #M0512) or 10 mg/kg piroxicam (Sigma Chemical, #P5654). One hour later, 16 μl/g body weight of 0.7% acetic acid was administered intraperitoneally. The mice were placed in a 5-compartment box and the number of stretches was counted for 20 minutes following acetic acid injection.

Structure (SMILES) | macrophage density ([1]; PGES2 KO clone 22F macrophages cultured in 10.0 μM PGE2, added at all stages of differentiation) | macrophage density compared to wild type ([1]; PGES2 KO clone #22F macrophages cultured in 0.1 μM PGE2, added at all stages of differentiation) | macrophage density compared to wild type ([1]; PGES2 KO clone #22F macrophages cultured in 1.0 μM PGE2, added at all stages of differentiation) | pain response (number of stretches counted for 20 minutes following acetic acid injection) ([2]; PGES2 KO mice) | pain response (number of stretches counted for 20 minutes following acetic acid injection) ([2]; wild type mice)
CCCCC[C@H](O)/C=C/[C@H]1[C@H](O)CC(=O)[C@@H]1C/C=C\CCCC(=O)O [PGE2, Prostaglandin E2] | approximately 75 % of wild type | equivalent in density to wild type | equivalent in density to wild type |  | 
CN1C(C(=O)Nc2ccccn2)=C(O)c2ccccc2S1(=O)=O [piroxicam] |  |  |  | had no effect | reduced the response
